In patent publication US20090215778A1, “Alpha-substituted Arylmethyl Piperazine Pyrazolo [1,5-alpha]Pyrimidine Amide Derivatives” (priority 2007, published 2009):
Where two headings read alike, the source gives them in different places.

Tests used:
[1] = molecular target: T1, HIV Env six-helix bundle (6HB) structure (Human immunodeficiency virus type 1 group M subtype B, UniProt P04579); assay: Six-helix bundle (6HB) assay; assay type: cell-based, HIV-1 (strain RF)
T1 construct: H9 cells chronically infected with HIV-1 (H9/HIV-1RF); endogenous in cells; host or cells: H9 cells chronically infected with HIV-1 strain RF (Env is made from the virus in the infected cells, not by transfection)
T1 sequence (P04579 32-519): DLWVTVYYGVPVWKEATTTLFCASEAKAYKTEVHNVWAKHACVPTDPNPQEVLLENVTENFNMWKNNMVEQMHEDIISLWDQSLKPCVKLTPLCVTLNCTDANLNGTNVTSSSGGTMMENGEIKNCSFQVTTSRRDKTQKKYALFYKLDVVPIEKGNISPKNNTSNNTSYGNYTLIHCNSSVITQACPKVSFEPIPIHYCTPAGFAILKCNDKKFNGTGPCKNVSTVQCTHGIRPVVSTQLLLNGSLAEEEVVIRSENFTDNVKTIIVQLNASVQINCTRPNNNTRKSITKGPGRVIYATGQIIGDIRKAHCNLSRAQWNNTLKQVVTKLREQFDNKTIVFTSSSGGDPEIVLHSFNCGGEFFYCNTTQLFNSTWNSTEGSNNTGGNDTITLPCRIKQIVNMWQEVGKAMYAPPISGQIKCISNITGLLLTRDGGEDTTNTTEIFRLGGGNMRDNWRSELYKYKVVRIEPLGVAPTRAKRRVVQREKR
T1 sequence (P04579 520-865): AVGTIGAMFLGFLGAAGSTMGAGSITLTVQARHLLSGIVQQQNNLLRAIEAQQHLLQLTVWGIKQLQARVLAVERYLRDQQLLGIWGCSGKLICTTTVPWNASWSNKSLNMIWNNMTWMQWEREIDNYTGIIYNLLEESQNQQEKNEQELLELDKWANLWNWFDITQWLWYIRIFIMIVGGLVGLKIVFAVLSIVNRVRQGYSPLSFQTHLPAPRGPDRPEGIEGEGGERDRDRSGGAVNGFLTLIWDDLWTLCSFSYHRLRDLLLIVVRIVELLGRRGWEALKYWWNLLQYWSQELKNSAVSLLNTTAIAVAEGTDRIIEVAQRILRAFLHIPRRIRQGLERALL
Description: 3×10^6H9 cells were incubated with 1 mL of HIV-1 (strain RF) supplemented with 40 μg/mL of DEAE-dextran. Virus and cells were incubated together at 37° C. for 2-4 hours with sporadic shaking to resuspend cells. 10 mL of media (RPMI 1640 containing 10% fetal bovine serum and supplemented with 50 μg/mL gentamicin) was then added and the virus-cell coculture was incubated at 37° C. in a humidified 5% CO2 incubator. 3 days post-infection and every 2-3 days thereafter, the infected H9/HIV-1RF cells were centrifuged, the supernatant was removed, and the cells were resuspended at a density of 0.3×10^6 cells/mL in media (RPMI 1640 containing 10% fetal bovine serum and supplemented with 50 μg/mL gentamicin). Chronically infected H9/HIV-1RF cells were used in experiments starting 12-15 days after infection and up to 40 days post-infection.
This assay determines the effect of compounds on conformational changes in HIV envelope glycoprotein (Env) that are required in order for Env to mediate the fusion of the viral and cellular membranes during virus entry and infection. Specifically, this assay measures the effect of compounds on the formation of the HIV Env six-helix bundle (6HB) structure.
H9 cells chronically infected with HIV-1 (H9/HIV-1RF) were resuspended in Stain/Wash Buffer (1% bovine serum albumin, 0.1% sodium azide in phosphate-buffered saline) and aliquoted at 2.5×10^5 cells per well into 96-well V-bottom plates containing various concentrations of test compounds. Cells and compounds were incubated for 30 minutes at 37° C. Recombinant soluble CD4 (sCD4) was then added to a final concentration of 1 μg/mL. Negative control wells contained no sCD4 and no test compound. Positive control wells contained sCD4 but no test compound. The plate was incubated for 1 hour at 37° C. to allow the sCD4 to bind to HIV Env and induce conformational changes in the Env protein. Antibody that is specific for the HIV Env six-helix bundle conformation was then added (1 μL polyclonal rabbit serum per well), and the plate was incubated for an additional 1 hour at 37° C. to permit antibody binding. The cells were then washed once with Stain/Wash Buffer to remove compound and excess antibody. The cells were resuspended in Stain/Wash Buffer containing PE-labeled anti-rabbit secondary antibody (KPL) at 0.25 μg per well. The cells were incubated for 45 min at 4° C. to permit secondary antibody binding. Fluorescence was detected using a BD FACSArray™ bioanalyzer. Compounds that inhibited Env conformational changes were identified as those that decreased primary antibody binding to the six-helix bundle epitope resulting in a decrease in fluorescence signal.

HIV-1, NL4-3 strain = assay: Virus infection assay (virus entry and single-cycle infection); assay type: cell-based; settings: Human immunodeficiency virus 1, NL43, TZM-b1, read-out: Nl4
Description: TZM-b1 indicator cells were propagated in Dulbecco's Modified Eagle's Medium (DMEM) containing 10% fetal bovine serum (FBS, heat-inactivated) and supplemented with gentamicin (50 ug/mL).
This assay determines the effects of compounds on virus entry and single-cycle infection of cells. In this assay, virus (HIV-1, NL4-3 strain) is added to indicator cells expressing the CD4 receptor and both the CXCR4 and CCR5 co-receptor. The cells contain both a lac Z and a luciferase reporter gene under control of the viral LTR transcription promoter. The cells and virus are incubated together in the presence of various concentrations of test compounds. Successful infection of the cells by the virus permits activation of the reporter gene by the viral Tat transcription factor. The resulting beta-galactosidase or luciferase activity is quantitated using a chemiluminescent substrate and a luminescent plate reader.
Specifically, one day prior to infection, 1.5×10^4 TZM-b1 indicator cells were added to each well of a 96-well microtiter plate. On the day of the experiment, virus (MOI 0.01) in 50 μL of medium (Dulbecco's Modified Eagle's Medium) supplemented with DEAE-dextran at a final concentration of 80 μg/mL was added to cells along with various concentrations of test compound in 50 μL of Dulbecco's Modified Eagle's Medium. Control wells had virus alone. Following a 4 hr incubation at 37° C., complete media [DMEM supplemented with 10% fetal bovine serum (FBS, heat-inactivated) and gentamicin (50 ug/mL)] was added. One day post-infection the level of virus infection was quantitated by detection of β-galactosidase expression using the Gal-Screen system (Applied Biosystems).

COc1ccc(-c2nc3c(C(=O)N4CCN([C@@H](C)c5cccc(C#N)c5)C[C@H]4C)cnn3c(C(F)(F)F)c2C)cc1
IC50 [1]: < 1000 nM | IC50 (HIV-1, NL4-3 strain): < 1000 nM

COc1ccc(-c2nc3c(C(=O)N4CCN(C(CO)c5ccc(C(C)=O)s5)C[C@H]4C)cnn3c(C(F)(F)F)c2C)cc1 (stereo partly drawn)
IC50 [1]: 1100 to 10000 nM | IC50 (HIV-1, NL4-3 strain): < 1000 nM

COc1ccc(-c2nc3c(C(=O)N4CCN(C(CO)c5ccc(Cl)nc5)C[C@H]4C)cnn3c(C(F)(F)F)c2C)cc1 (stereo partly drawn)
IC50 [1]: < 1000 nM | IC50 (HIV-1, NL4-3 strain): < 1000 nM

COc1ccc(-c2nc3c(C(=O)N4CCN(C(CO)c5ccc(C#N)cc5)C[C@H]4C)cnn3c(C(F)(F)F)c2C)cc1 (stereo partly drawn)
IC50 [1]: 1100 to 10000 nM | IC50 (HIV-1, NL4-3 strain): 1100 to 10000 nM

COc1ccc(-c2nc3c(C(=O)N4CCN(C(C(N)=O)c5ccccc5)C[C@H]4C)cnn3c(C(F)(F)F)c2C)cc1 (stereo partly drawn) [1-piperazineacetamide, 4-[[5-(4-methoxyphenyl)-6-methyl-7-(trifluoromethyl)pyrazolo[1,5-α]pyrimidin-3-yl]carbonyl]-3-methyl-α-phenyl-, (3R)-]
IC50 [1]: < 1000 nM | IC50 (HIV-1, NL4-3 strain): < 1000 nM

CNC(=O)C(c1ccccc1)N1CCN(C(=O)c2cnn3c(C(F)(F)F)c(C)c(-c4ccc(OC)cc4)nc23)[C@H](C)C1 (stereo partly drawn) [1-piperazineacetamide, 4-[[5-(4-methoxyphenyl)-6-methyl-7-(trifluoromethyl)pyrazolo[1,5-α]pyrimidin-3-yl]carbonyl]-N,3-dimethyl-α-phenyl-, (3R)-]
IC50 [1]: < 1000 nM | IC50 (HIV-1, NL4-3 strain): < 1000 nM

COc1ccc(-c2nc3c(C(=O)N4CCN(C(C(=O)N(C)C)c5ccccc5)C[C@H]4C)cnn3c(C(F)(F)F)c2C)cc1 (stereo partly drawn) [1-piperazineacetamide, 4-[[5-(4-methoxyphenyl)-6-methyl-7-(trifluoromethyl)pyrazolo[1,5-α]pyrimidin-3-yl]carbonyl]-N,N,3-trimethyl-α-phenyl-, (3R)-]
IC50 [1]: < 1000 nM | IC50 (HIV-1, NL4-3 strain): < 1000 nM

COc1ccc(-c2nc3c(C(=O)N4CCN(C(C(=O)O)c5ccccc5)C[C@H]4C)cnn3c(C(F)(F)F)c2C)cc1 (stereo partly drawn) [1-piperazineacetic acid, 4-[[5-(4-methoxyphenyl)-6-methyl-7-(trifluoromethyl)pyrazolo[1,5-α]pyrimidin-3-yl]carbonyl]-3-methyl-α-phenyl-, (3R)-]
IC50 [1]: > 10100 nM | IC50 (HIV-1, NL4-3 strain): > 10100 nM

COC(=O)C(c1ccccc1)N1CCN(C(=O)c2cnn3c(C(F)(F)F)c(C)c(-c4ccc(OC)cc4)nc23)[C@H](C)C1 (stereo partly drawn) [1-piperazineacetic acid, 4-[[5-(4-methoxyphenyl)-6-methyl-7-(trifluoromethyl)pyrazolo[1,5-α]pyrimidin-3-yl]carbonyl]-3-methyl-α-phenyl-, methyl ester, (3R)-]
IC50 [1]: < 1000 nM | IC50 (HIV-1, NL4-3 strain): < 1000 nM

COc1ccc(-c2nc3c(C(=O)N4CCN(C(C#N)c5ccccc5)C[C@H]4C)cnn3c(C(F)(F)F)c2C)cc1 (stereo partly drawn) [1-piperazineacetonitrile, 4-[[5-(4-methoxyphenyl)-6-methyl-7-(trifluoromethyl)pyrazolo[1,5-α]pyrimidin-3-yl]carbonyl]-3-methyl-α-phenyl-, (3R)-]
IC50 [1]: < 1000 nM | IC50 (HIV-1, NL4-3 strain): < 1000 nM

COc1ccc(-c2nc3c(C(=O)N4CCN([C@@H](C)c5ccc(C#N)s5)C[C@H]4C)cnn3c(C(F)(F)F)c2C)cc1 [2-thiophenecarbonitrile, 5-[(1S)-1-[(3R)-4-[[5-(4-methoxyphenyl)-6-methyl-7-(trifluoromethyl)pyrazolo[1,5-α]pyrimidin-3-yl]carbonyl]-3-methyl-1-piperazinyl]ethyl]-]
IC50 [1]: < 1000 nM | IC50 (HIV-1, NL4-3 strain): 1100 to 10000 nM

COc1ccc(-c2nc3c(C(=O)N4CCN(C(CO)c5ccc(C(=O)N(C)C)s5)C[C@H]4C)cnn3c(C(F)(F)F)c2C)cc1 (stereo partly drawn) [2-thiophenecarboxamide, 5-[2-hydroxy-1-[(3R)-4-[[5-(4-methoxyphenyl)-6-methyl-7-(trifluoromethyl)pyrazolo[1,5-α]pyrimidin-3-yl]carbonyl]-3-methyl-1-piperazinyl]ethyl]-N,N-dimethyl-]
IC50 [1]: > 10100 nM | IC50 (HIV-1, NL4-3 strain): > 10100 nM

COc1ccc(-c2nc3c(C(=O)N4CCN(C(CO)c5ccc(C(=O)O)s5)C[C@H]4C)cnn3c(C(F)(F)F)c2C)cc1 (stereo partly drawn) [2-thiophenecarboxylic acid, 5-[2-hydroxy-1-[(3R)-4-[[5-(4-methoxyphenyl)-6-methyl-7-(trifluoromethyl)pyrazolo[1,5-α]pyrimidin-3-yl]carbonyl]-3-methyl-1-piperazinyl]ethyl]-]
IC50 [1]: 1100 to 10000 nM | IC50 (HIV-1, NL4-3 strain): > 10100 nM

COc1ccc(-c2nc3c(C(=O)N4CCN(C(CO)c5ccccc5NC(C)=O)C[C@H]4C)cnn3c(C(F)(F)F)c2C)cc1 (stereo partly drawn) [acetamide, N-[2-[2-hydroxy-1-[(3R)-4-[[5-(4-methoxyphenyl)-6-methyl-7-(trifluoromethyl)pyrazolo[1,5-α]pyrimidin-3-yl]carbonyl]-3-methyl-1-piperazinyl]ethyl]phenyl]-]
IC50 [1]: > 10100 nM | IC50 (HIV-1, NL4-3 strain): > 10100 nM

COc1ccc(-c2nc3c(C(=O)N4CCN(C(CNC(C)=O)c5ccccc5)C[C@H]4C)cnn3c(C(F)(F)F)c2C)cc1 (stereo partly drawn) [acetamide, N-[2-[(3R)-4-[[5-(4-methoxyphenyl)-6-methyl-7-(trifluoromethyl)pyrazolo[1,5-α]pyrimidin-3-yl]carbonyl]-3-methyl-1-piperazinyl]-2-phenylethyl]-]
IC50 [1]: < 1000 nM | IC50 (HIV-1, NL4-3 strain): < 1000 nM

COc1ccc(-c2nc3c(C(=O)N4CCN([C@@H](CO)c5ccccc5)C[C@H]4C)cnn3c(C(F)(F)F)c2C)cc1 [drawing 44, methanone, [(2R)-4-[(1R)-2-hydroxy-1-phenylethyl]-2-methyl-1-piperazinyl][5-(4-methoxyphenyl)-6-methyl-7-(trifluoromethyl)pyrazolo[1,5-α]pyrimidin-3-yl]-]
IC50 ([1]; read-out: 6HB IC50, H9 cells chronically infected with HIV-1 RF, sCD4-induced six-helix bundle formation): < 1000 nM

CCC(c1ccccc1)N1CCN(C(=O)c2cnn3c(C(F)(F)F)cc(-c4ccc(OC)cc4)nc23)CC1 (stereo not drawn) [methanone, [5-(4-methoxyphenyl)-7-(trifluoromethyl)pyrazolo[1,5-a]pyrimidin-3-yl][4-(1-phenylpropyl)-1-piperazinyl]-]
IC50 [1]: 1100 to 10000 nM

COc1ccc(-c2cc(C(F)(F)F)n3ncc(C(=O)N4CCN(C(C)c5ccccc5)CC4)c3n2)cc1 (stereo not drawn) [methanone, [5-(4-methoxyphenyl)-7-(trifluoromethyl)pyrazolo[1,5-α]pyrimidin-3-yl][4-(1-phenylethyl)-1-piperazinyl]-]
IC50 [1]: 1100 to 10000 nM

COc1ccc(-c2cc(C(F)(F)F)n3ncc(C(=O)N4CCN([C@@H](C)c5ccccc5)CC4)c3n2)cc1 [methanone, [5-(4-methoxyphenyl)-7-(trifluoromethyl)pyrazolo[1,5-α]pyrimidin-3-yl][4-(1-phenylethyl)-1-piperazinyl]-]
IC50 [1]: 1100 to 10000 nM

COc1ccc(-c2cc(C(F)(F)F)n3ncc(C(=O)N4CCN([C@H](C)c5ccccc5)CC4)c3n2)cc1 [methanone, [5-(4-methoxyphenyl)-7-(trifluoromethyl)pyrazolo[1,5-α]pyrimidin-3-yl][4-(1-phenylethyl)-1-piperazinyl]-]
IC50 [1]: 1100 to 10000 nM

COc1ccc(-c2cc(C(F)(F)F)n3ncc(C(=O)N4CCN(C(c5ccccc5)C(F)(F)F)CC4)c3n2)cc1 (stereo not drawn) [methanone, [5-(4-methoxyphenyl)-7-(trifluoromethyl)pyrazolo[1,5-α]pyrimidin-3-yl][4-(2,2,2-trifluoro-1-phenylethyl)-1-piperazinyl]-]
IC50 [1]: < 1000 nM
